The term CC50 denotes the concentration giving 50% cytotoxicity.

The subject of assay [1] is HEK293. The assay can be described thus: cells. The format is functional, Homo sapiens, ATCC CRL1573. Particulars: Homo sapiens, ATCC CRL1573, HEK293; ASSAY_TEST Inhibition of Cell Viability; detection method Resazurin; Fluorescence (ex560/em590); MEDIA DMEM with 10% FBS; plate type 384well; TC; CORNING #3712; time 18 hr; read-out: CC50. (In general: The colour change of resazurin is a common sign of viable cells or microbes.)

Assay [2] relates to Pseudomonas aeruginosa. The assay can be described thus: Antibacterial activity against Pseudomonas aeruginosa PAO397 [PAO1 d(mexAB-oprM) d(mexCD-oprJ) d(mexEF-oprN) d(mexJKL) d(mexXY) d(opmH)] (CO-ADD:GN_211); MIC in CAMBH media using NBS plates, by OD(600). The format is functional. As to conditions: ASSAY_TEST Inhibition of Bacterial Growth, detection method Absorption (OD600), MEDIA CAMHB, plate type 384well, CORNING #3640, time 18 hr.

Assay [3] concerns Cryptococcus neoformans.
Description: Antifungal activity against Cryptococcus neoformans H99 ATCC 208821 (CO-ADD:FG_002); MIC in YNB media using NBS plates, by Resazurin OD(600-570)
Assay [4] relates to Staphylococcus aureus. The assay can be described thus: microbe, parasite or virus in culture. As to conditions: ATCC 43300, 18 h, ASSAY_TEST Inhibition of Bacterial Growth, detection method Absorption (OD600), MEDIA CAMHB, plate type 384well, NBS, CORNING #3640.
Description: Antibacterial activity against Staphylococcus aureus MRSA ATCC 43300 (CO-ADD:GP_020); MIC in CAMBH media, using NBS plates, by OD(600)
The subject of assay [5] is Escherichia coli. The assay can be described thus: microbe, parasite or virus in culture. As to conditions: ATCC 25922, 18 h, ASSAY_TEST Inhibition of Bacterial Growth, detection method Absorption (OD600), MEDIA CAMHB, plate type 384well, NBS, CORNING #3640.
Description: Antibacterial activity against Escherichia coli ATCC 25922 (CO-ADD:GN_001); MIC in CAMBH media using NBS plates, by OD(600)
Assay [6] relates to Klebsiella pneumoniae. The assay can be described thus: microbe, parasite or virus in culture. As to conditions: ATCC 700603, 18 h, ASSAY_TEST Inhibition of Bacterial Growth, detection method Absorption (OD600), MEDIA CAMHB, plate type 384well, NBS, CORNING #3640.
Description: Antibacterial activity against Klebsiella pneumoniae MDR ATCC 70063 (CO-ADD:GN_003); MIC in CAMBH media using NBS plates, by OD(600)
For assay [7], the system named is Pseudomonas aeruginosa. Nature of the assay: microbe, parasite or virus in culture. Particulars: ATCC 27853, 18 h, ASSAY_TEST Inhibition of Bacterial Growth, detection method Absorption (OD600), MEDIA CAMHB, plate type 384well, NBS, CORNING #3640.
Description: Antibacterial activity against Pseudomonas aeruginosa ATCC 27853 (CO-ADD:GN_042); MIC in CAMBH media using NBS plates, by OD(600)
For assay [8], the system named is Acinetobacter baumannii. The assay can be described thus: microbe, parasite or virus in culture. Particulars: ATCC 19606, 18 h, ASSAY_TEST Inhibition of Bacterial Growth, detection method Absorption (OD600), MEDIA CAMHB, plate type 384well, NBS, CORNING #3640.
Description: Antibacterial activity against Acinetobacter baumannii ATCC 19606 (CO-ADD:GN_034); MIC in CAMBH media using NBS plates, by OD600
In assay [9] the test system is Candida albicans. The assay can be described thus: microbe, parasite or virus in culture. As to conditions: ATCC 90028, ASSAY_TEST Inhibition of Fungal Growth, detection method Absorption (OD530), plate type 384well, NBS, CORNING #3640.
Description: Antifungal activity against Candida albicans ATCC 90028 (CO-ADD:FG_001); MIC in YNB media using NBS plates, by OD630

With `CCCCN1C[C@H](O)[C@@H](O)[C@H](O)[C@H]1CO`, the CC50 in assay [1] is over 20 µM. Besides, the MIC in assay [2], in assay [3], in [4], in assay [5], in assay [6] and in [7] was over 20 µM each time. The MIC in assay [8] and in [9] was over 20 µM in each case.
Regarding `O=C(O)/C=C/C=C/c1cccc(Oc2cc(Cl)cc(Cl)c2)c1`, the cytotoxic concentration (CC50) in [1] is over 20 µM. Besides, the MIC in assay [2], in [3], in assay [4], in assay [5], in [6] and in assay [7] was over 20 µM each time. Moreover, the MIC in assay [8] and in assay [9] was over 20 µM in each case.
`CC(C)(C)NC(=O)[C@@H]1C[C@@H]2CCCC[C@@H]2CN1C[C@@H](O)[C@H](Cc1ccccc1)NC(=O)[C@H](CC(N)=O)NC(=O)c1ccc2ccccc2n1`: the 50% cytotoxic concentration (CC50) in assay [1] was over 20 µM. Besides, the MIC in assay [2], in [3], in assay [4], in assay [5], in [6] and in [7] was over 20 µM in each case. For the same molecule, the MIC in assay [8] and in assay [9] was over 20 µM each time.
For the molecule `COc1ccc(CNC(=O)C2CCN([C@H](C)c3cccc4ccccc34)CC2)cc1`, in [1], the CC50 is over 20 µM. Further, the MIC in assay [2], in assay [3], in assay [4], in [5], in assay [6] and in assay [7] was over 20 µM throughout. Moreover, the MIC in assay [8] and in assay [9] was over 20 µM throughout.
Turning to `COc1ccc(OCc2ccc(COc3c(Cl)cccc3Cl)cc2)c(Cl)c1`, the CC50 in [1] was over 20 µM. Moreover, the MIC in assay [2], in [3], in [4], in assay [5], in assay [6] and in [7] was over 20 µM each time. Besides, the MIC in assay [8] and in [9] was over 20 µM in each case.
Consider `CCN1CCN(Cc2nc3ccc([N+](=O)[O-])cc3c(=O)n2-c2ccccc2F)CC1`, for which the CC50 in assay [1] is over 20 µM. Further, the MIC in assay [2], in assay [3], in assay [4], in assay [5], in assay [6] and in assay [7] was over 20 µM each time. The MIC in [8] and in assay [9] was over 20 µM throughout.
As to `Cc1nc2ccc(Cl)cc2c(-c2ccccc2)c1CC(=O)O`, the CC50 in assay [1] is over 20 µM. Further, the MIC in assay [2], in assay [3], in assay [4], in assay [5], in assay [6] and in assay [7] was over 20 µM in each case. In addition, the MIC in [8] and in assay [9] was over 20 µM each time.
For `COc1ccc(-n2cnc3cc(NCc4ccco4)ccc32)cc1`, the 50% cytotoxic concentration (CC50) in assay [1] is over 20 µM. The MIC in assay [2], in [3], in [4], in assay [5], in assay [6] and in [7] was over 20 µM each time. Besides, the MIC in [8] and in [9] was over 20 µM throughout.
For `COc1cc(NS(=O)(=O)c2ccc(C)cc2)c2ncccc2c1`, in [1], the cytotoxic concentration (CC50) was determined as 5.41 µM. Further, the MIC in assay [2], in assay [3], in assay [4], in assay [5], in [6] and in assay [7] was over 20 µM each time. The MIC in assay [8] and in assay [9] was over 20 µM throughout.
As to `O=C(Nc1ccc(N2CCN(C(=O)c3ccccc3)CC2)cc1)c1ccc2c(c1)OCO2`, in [1], the cytotoxic concentration (CC50) was over 20 µM. Moreover, the MIC in [2], in assay [3], in assay [4], in [5], in assay [6] and in [7] was over 20 µM throughout. Besides, the MIC in assay [8] and in assay [9] was over 20 µM throughout.
`COCCn1cnc2c(O)nc(Nc3ccccc3)nc21`: the 50% cytotoxic concentration (CC50) in assay [1] was over 20 µM. The MIC in assay [2], in [3], in assay [4], in assay [5], in assay [6] and in assay [7] was over 20 µM throughout. Moreover, the MIC in assay [8] and in assay [9] was over 20 µM throughout.
Consider `O=C(NCc1ccc(F)cc1)c1c(O)c2ncccc2[nH]c1=O`, for which, in assay [1], the CC50 is over 20 µM. In addition, the MIC in assay [2], in [3], in assay [4], in [5], in assay [6] and in [7] was over 20 µM throughout. Besides, the MIC in [8] and in assay [9] was over 20 µM in each case.
`O=C(c1nc2c(C(F)(F)F)cc(C3CC3)cn2c1Cl)N1CCN([C@H]2CC[C@H](O)CC2)C(=O)C1`: the CC50 in [1] is over 20 µM. The MIC in assay [2], in assay [3], in assay [4], in assay [5], in assay [6] and in assay [7] was over 20 µM each time. For the same molecule, the MIC in assay [8] and in assay [9] was over 20 µM in each case.
Take `CCC[C@H](NC(=O)[C@@H]1[C@H]2CCC[C@H]2CN1C(=O)[C@@H](NC(=O)[C@@H](NC(=O)c1cnccn1)C1CCCCC1)C(C)(C)C)C(=O)C(=O)NC1CC1`: in assay [1], the CC50 was over 20 µM. In addition, the MIC in assay [2], in [3], in assay [4], in assay [5], in assay [6] and in assay [7] was over 20 µM in each case. Moreover, the MIC in assay [8] and in [9] was over 20 µM throughout.
`CCOc1ccc(/C=N/NC(=O)C2CC2c2ccc(C(C)(C)C)cc2)cc1OCC` (stereo not given): in assay [1], the CC50 is over 20 µM. Further, the MIC in [2], in assay [3], in [4], in [5], in assay [6] and in [7] was over 20 µM in each case. The MIC in [8] and in [9] was over 20 µM each time.
Consider `O=C(O)CSc1cc(NS(=O)(=O)c2cccc3cccnc23)c2ccccc2c1O`, for which the CC50 in assay [1] was over 20 µM. Also, the MIC in [2], in [3], in assay [4], in assay [5], in [6] and in assay [7] was over 20 µM throughout. Further, the MIC in assay [8] and in [9] was over 20 µM each time.
For the molecule `COc1ccc2c(c1OC)C(=O)OC2C1c2c(cc3c(c2OC)OCO3)CCN1C` (stereo not given), the half-maximal cytotoxic concentration (CC50) in assay [1] was over 20 µM. In addition, the MIC in assay [2], in assay [3], in [4], in assay [5], in [6] and in assay [7] was over 20 µM each time. The MIC in [8] and in [9] was over 20 µM throughout.
For the molecule `Cc1c(F)cccc1NC(=O)Nc1ccc(Cl)c(S(=O)(=O)[C@H]2CCCNC2)c1O`, the CC50 in assay [1] was 12 µM. In addition, the MIC in [2], in assay [3], in [4], in [5], in assay [6] and in assay [7] was over 20 µM in each case. The MIC in assay [8] and in assay [9] was over 20 µM in each case.
As for `C/C(=N\NC(=O)C1CC1c1ccccc1)c1ccc(NC(=O)c2ccco2)cc1` (stereo not given), in [1], the CC50 was over 20 µM. The MIC in assay [2], in assay [3], in assay [4], in assay [5], in assay [6] and in assay [7] was over 20 µM in each case. The MIC in assay [8] and in assay [9] was over 20 µM in each case.
Regarding `CC(C)C(=O)N[C@H]1[C@H]([C@H](O)[C@H](O)CO)OC(C(=O)O)=C[C@@H]1N=[N+]=[N-]`, the CC50 in assay [1] was over 20 µM. Besides, the MIC in [2], in assay [3], in assay [4], in [5], in assay [6] and in [7] was over 20 µM throughout. Also, the MIC in assay [8] and in assay [9] was over 20 µM throughout.

The values are drawn from ChEMBL document CHEMBL4513161, “CO-ADD screening of MMV (CH) - Pandemic Response Box” (2021).
